# In US20240366594A1, “Small Molecule Inhibitors of Formation of Neutrophil-Derived Extracellular Traps (NETosis) and Uses Thereof” (The Brigham and Women's Hospital, Inc., priority 2021, published 2024):
# How the values were obtained:
# [1] = test system: primary human neutrophils; test: Extracellular DNA release by PMA-activated human neutrophils; assay type: cell-based; conditions: 1 μM GSK484 for 1 h, then 1 μM PMA for 4 hours; FIG. 5A
# Method: FIGS. 5A-J. Class I/II HDACs drive NET formation. • A) Quantification of extracellular DNA released by neutrophils treated, or not, with 1 μM GSK484 for 1 h and then stimulated with 1 μM PMA for 4 hours. Unstimulated, neutrophils not treated with drugs were used as a control. • B) Freshly purified human neutrophils were treated with the indicated HDAC inhibitors at different doses (0.08, 0.4, 2 and 10 μM) for 1 hour. Extracellular DNA release was assessed in the supernatant 3 hours after PMA stimulation. The dotted line represents the amount of DNA released from neutrophils treated with PMA alone. […] NETosis induction was measured as level of anti-CitH3 fluorescent signal. […] NET induction was measured as in (C). […] NETosis induction was measured as level of anti-CitH3 fluorescent signal. […] NET induction was measured as in (F). • H, I) Freshly isolated neutrophils from two different donors were treated with different doses of ricolinostat, citarinostat (10, 2, 0.4, 0.08 μM) or GSK484 (10, 5, 2 μM) for 1 h and then stimulated with 1 μM PMA. NET induction was measured as level of anti-CitH3 fluorescent signal (H) and by microscopy as number of cells positive for CitH3 signal per field of view (FOV) (I). […] NET induction was measured as level of anti-CitH3 fluorescent signal. […] Statistics were calculated using One-way ANOVA (A, E, I) and Two-way ANOVA (B, F, G, H, L). […]
# Murine neutrophils = test: Phagocytosis assay with fluorescent E. coli; assay type: cell-based, mouse; conditions: ricolinostat 10 μM, fluorescent E. coli 1 h; FIG. 1H
# Method: FIGS. 1A-H. Class I/II HDACs drive NET formation • (A and B) Freshly purified human (A) or mouse (B) neutrophils were treated with the indicated HDAC inhibitors at different doses (10, 2, 0.4, 0.08 μM), or with GSK484 (10 μM), for 1 h and then stimulated with 1 μM PMA for 3 h. Cells were fixed and stained with anti-citrullinated histone H3 (CitH3) antibody. NETosis induction was measured as the level of anti-CitH3 fluorescent signal. PMA alone represents 100% of NET induction. “-”: Cells treated with the highest dose of the indicated drug but not activated with PMA. • (C and D) Human neutrophils were treated, or not, with ricolinostat or GSK484 and then stimulated with 1 μM PMA. NETosis induction was measured as area of nuclei stained with DAPI. (C) 3D reconstruction of nuclei in each treatment (grid size 7.8 μm). (D) Quantification of DAPI signal from multiple fields of view (D) (n=9 for unstimulated, not pretreated with any drug [NT] and ricolinostat, n=7 for GSK484). • (E and F) Human neutrophils were treated as in (C-D), and immunoblot analysis of the indicated proteins was performed. Relative quantification of band intensity was analyzed with ImageJ software (F). White violins plots depict the quantification of histone H3 acetylation; red violin plots depict the quantification of histone H3 citrullination. […] ROS production was measured by luminescence with luminol-HRP. […]
compound,measurement,setting,value
COc1cc(C(=O)N2CC[C@@H](O)[C@@H](N)C2)cc2nc(-c3cc4ccccc4n3CC3CC3)n(C)c12 [GSK484],extracellular DNA released by PMA-treated neutrophils,[1],significant decrease
O=C(CCCCCCNC(=O)c1cnc(N(c2ccccc2)c2ccccc2)nc1)NO [ricolinostat],bacterial phagocytosis (percentage of neutrophils positive for E. coli),Murine neutrophils,excluded that ricolinostat administration altered
